Measured values taken from PMC5794925, “Expression and specificity of a chitin deacetylase from the nematophagous fungus Pochonia chlamydosporia potentially involved in pathogenicity” (Scientific Reports, 2018).

Biological target: T1, PcCDA catalytic domain (Pochonia chlamydosporia, UniProt A0A179FW77)
T1 construct: gene VFPPC_13269
T1 sequence (A0A179FW77 94-309): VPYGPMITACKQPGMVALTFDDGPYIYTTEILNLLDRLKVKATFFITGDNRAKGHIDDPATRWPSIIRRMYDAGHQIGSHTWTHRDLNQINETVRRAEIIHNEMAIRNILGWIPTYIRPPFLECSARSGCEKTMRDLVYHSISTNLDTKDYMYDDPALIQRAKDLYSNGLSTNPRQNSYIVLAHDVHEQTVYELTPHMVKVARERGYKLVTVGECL
Assay: HPLC-MS of deacetylated products
Assay type: biochemical
Conditions: 0.2 mM substrate, 3.2 nM enzyme, 50 mM K2HPO4, 300 mM NaCl, pH 8.0, 37 °C; refolded with Zn2+

CC(=O)N[C@H]1[C@H](O[C@H]2[C@H](O)[C@@H](NC(C)=O)C(O)O[C@@H]2CO)O[C@H](CO)[C@@H](O[C@@H]2O[C@H](CO)[C@@H](O[C@@H]3O[C@H](CO)[C@@H](O)[C@H](O)[C@H]3NC(C)=O)[C@H](O)[C@H]2NC(C)=O)[C@@H]1O (stereo partly shown) [A4, GlcNAc4]
HPLC-MS of deacetylated products: With the A4 substrate, the enzyme was also active but slower than with the A5
